Assay results taken from patent US9890176B2, “Mannose derivatives for treating bacterial infections” (Vertex Pharmaceuticals Incorporated, priority 2013, dated 2018).

Test system: bacterial strain LF82 binding to the glycoprotein BSA-(Mannose)3
Assay: Bacterial Binding Assay (BBA)
Assay type: cell-based, Escherichia coli
Settings: read-out: Bacterial Binding Assay IC50
Description: The purpose of the Bacterial Binding Assay (BBA) is to determine the inhibition activity of selective FimH antagonists on the bacterial strain LF82 binding to the glycoprotein BSA-(Mannose)3.
Below is a list of the Materials used to run the BBA are described below. • 1. LB broth: Supplier: Gibco, #10855 • 2. D-PBS: Supplier: Wisent, #311-425-CL • 3. LB agar plates • 4. 96-well black plate (high binding): Supplier: Costar, #3925 • 5. TopSeal™-A adhesive sealing films; Supplier PerkinElmer, #6005185 • 6. Carbonate-bicarbonate buffer pH 9.6 tablets, Supplier: Medicago, #09-8922-24 • 7. Water, Supplier: Gibco, #15230-162 • 8. Bovine serum albumin (BSA): Supplier: Sigma, #A-7888 • 9. (Man)-3-BSA (α1-3, α1-6 Mannotriose-BSA, 1 mg), V-Labs, #NGP1336, lot#HGDX37-169-1 • 10. Tween 20: Supplier: Sigma, #P9416 • 11. Bright-Glo Luciferase Assay System: Supplier: Promega, #E2610 • 12. LF82/Luciferase strain: Invasive ability of an Escherichia coli strain isolated from the ileal mucosa of a patient with Crohn's disease. Boudeau J, Glasser A L, Masseret E, Joly B, Darfeuille-Michaud A, Infect Immun. 1999, 67(9), 4499-509
Solutions and buffers used to run the BBA are described below. • 1. 0.04M carbonate-bicarbonate buffer (coating buffer) • 2. […] 1 mg of (Man)-3-BSA in 25 mL of water. • 3. 4000 ng/mL BSA • 4. 40 ng/mL BSA • 5. 1 μg/mL BSA-(Man)3: 150 μL of 40 ng/mL BSA-(Man)3+5.85 mL of 40 ng/mL BSA • 6. 0.5 μg/mL BSA-(Man)3 in 0.02M carbonate-bicarbonate buffer. • 7. 20 ng/mL BSA in 0.02M carbonate-bicarbonate buffer • 8. Blocking buffer (2% BSA/DPBS): 1 g of BSA in 50 mL D-PBS • 9. 2× binding buffer (0.2% BSA/D-PBS): 5 mL of blocking buffer+45 mL D-PBS. • 10. Washing buffer (D-PBS/0.01% Tween 20): 10 μL of Tween 20 in 100 mL D-PBS. • 11. 1× Bright-Glo Luciferase substrate:Dilute 1:1 the Bright-Glo Luciferase Assay System with D-PBS The experimental protocol to run the BBA is described below.
Overnight culture of LF82/Luciferase strain: Into two Falcon 50 mL tubes, add 20 mL of LB+20 μL of 50 mg/mL Kanamycin and inoculate with a loop from glycerol stock of the LF82/Luciferase strain. Incubate overnight at 37° C. with no shaking.
Glycoprotein coating of 96-well plates: Add 100 μL/well of 0.5-2 μg/mL BSA-(Man)3. 20 μg/mL BSA is used as the control background. Seal plate using an adhesive sealing film and incubate overnight at room temperature. Wash the 96-well plate three times with 150 μL/well of D-PBS, add 170 μL/well of blocking solution and incubate 45 min (minimum) at room temperature.
Preparation of bacterial suspension: Mix the two cultures tubes (40 mL) and perform a 1:10 dilution in LB (900 μl LB+100 μl culture. Measure optical density (OD) of the bacterial cultures. OD1 ˜5×10^8 cells/mL. Centrifuge LF82 culture for 20 min at 3500 rpm at room temperature. Re-suspend bacterial pellet in D-PBS and centrifuge again for 20 min at 3500 rpm. Re-suspend bacterial pellet in D-PBS to obtain a bacterial concentration of 2×10^9 bacteria/mL. Dilute 1/10 in D-PBS to obtain a final bacterial concentration of 2×10^8 bacteria/mL (=107 bacteria/50 μL). Perform 1/10 serial dilutions in LB of each bacterial suspension, plate 10 μL of dilutions on LB agar plates (final dilutions of 10^−7) and incubate overnight at 37° C. and count CFUs to determine the actual bacteria density in the assay.
Bacterial binding assay: Add 147 μL 2× binding buffer to compound plate (containing 3 μL of compound). After blocking step is performed (at least 45 min), wash plates three times with 200 μL/well of D-PBS. With a 100 μL multichannel manual pipettor, add 50 μL/well of compound diluted in 2× binding buffer. With a 100 μL multichannel manual pipettor, add 50 μL/well of bacterial suspension. Agitate at slow speed for 1 min and incubate 40-75 min at room temperature. Wash 5 times with 150 μL/well of washing buffer and then once with D-PBS. Add 100 μL/well of 1× Bright-Glo Luciferase substrate. […]

Structure (SMILES)	IC50
Cc1cc(-c2ccc(F)c(C(=O)N3CCCC3)c2)ccc1O[C@H]1O[C@H](CO)[C@@H](O)[C@H](O)[C@]1(C)O [Compound 85]	30 ± 8 nM
COc1cc(-c2ccc(O[C@H]3O[C@H](CO)[C@@H](O)[C@H](O)[C@]3(C)O)c(OC)c2)ccc1O[C@H]1O[C@H](CO)[C@@H](O)[C@H](O)[C@]1(C)O [Example 109, (2R,3S,4S,5S,6R)-6-(hydroxymethyl)-2-[2-methoxy-4-[3-methoxy-4-[(2R,3S,4S,5S,6R)-3,4,5-trihydroxy-6-(hydroxymethyl)-3-methyl-tetrahydropyran-2-yl]oxy-phenyl]phenoxy]-3-methyl-tetrahydropyran-3,4,5-triol]	8 ± 4 nM
Cc1cc(-c2ccc(O[C@H]3O[C@H](CO)[C@@H](O)[C@H](O)[C@]3(C)O)c(C)c2)ccc1O [Compound 104]	69 ± 23 nM
Cc1cc(-c2cccc(C(=O)N[C@H]3[C@H](O)[C@@H](CO)OC(O)[C@@H]3O)c2)ccc1O[C@H]1O[C@H](CO)[C@@H](O)[C@H](O)[C@]1(C)O (stereo partly shown) [Compound 65]	20 ± 8 nM
CNC(=O)c1cc(F)cc(-c2ccc(O[C@H]3O[C@H](CO)[C@@H](O)[C@H](O)[C@]3(C)O)c(C)c2)c1 [Compound 73]	16 ± 5 nM
COCCNC(=O)c1cccc(-c2ccc(O[C@H]3O[C@H](CO)[C@@H](O)[C@H](O)[C@]3(C)O)c(Cl)c2)c1 [Compound 53]	24 ± 6 nM
Cc1cc(-c2cc(F)cc(F)c2)ccc1O[C@H]1O[C@H](CO)[C@@H](O)[C@H](O)[C@]1(C)O [Compound 76]	24 ± 3 nM
Cc1cc(-c2cccc(C(=O)NC(C)(CO)CO)c2)ccc1O[C@H]1O[C@H](CO)[C@@H](O)[C@H](O)[C@]1(C)O [Compound 61]	22 ± 6 nM
Cc1cc(-c2cccc(C(=O)N3CCN(C)CC3)c2)ccc1O[C@H]1O[C@H](CO)[C@@H](O)[C@H](O)[C@]1(C)O [Compound 68]	26 ± 4 nM
CNC(=O)c1cccc(-c2ccc(O[C@H]3O[C@H](CO)[C@@H](O)[C@H](O)[C@]3(C)O)cc2OC)c1 [Compound 41]	220 ± 110 nM
CNC(=O)c1cccc(-c2ccc(O[C@H]3O[C@H](CO)[C@@H](O)[C@H](O)[C@@]3(O)Cn3cc(CO)nn3)c(C)c2)c1 [Compound 51]	7150 ± 50 nM
Cc1cc(-c2cccc(Cl)c2F)ccc1O[C@H]1O[C@H](CO)[C@@H](O)[C@H](O)[C@]1(C)O [Compound 93]	215 ± 5 nM
Cc1cc(-c2ccc(-c3ccc(O[C@H]4O[C@H](CO)[C@@H](O)[C@H](O)[C@]4(C)O)c(C)c3)cc2)ccc1O[C@H]1O[C@H](CO)[C@@H](O)[C@H](O)[C@]1(C)O [Example 116, (2R,3S,4S,5S,6R)-6-(hydroxymethyl)-3-methyl-2-[2-methyl-4-[4-[3-methyl-4-[(2R,3S,4S,5S,6R)-3,4,5-trihydroxy-6-(hydroxymethyl)-3-methyl-tetrahydropyran-2-yl]oxy-phenyl]phenyl]phenoxy]tetrahydropyran-3,4,5-triol]	30 ± 13 nM
CNC(=O)c1ccc(-c2cccc(O[C@H]3O[C@H](CO)[C@@H](O)[C@H](O)[C@]3(C)O)c2Cl)cc1 [Compound 47]	55 ± 29 nM
Cc1cc(-c2cccc([N+](=O)[O-])c2)ccc1O[C@H]1O[C@H](CO)[C@@H](O)[C@H](O)[C@]1(C)O [Example 18, (2R,3S,4S,5S,6R)-6-(hydroxymethyl)-3-methyl-2-[2-methyl-4-(3-nitrophenyl)phenoxy]tetrahydropyran-3,4,5-triol]	13 ± 3 nM
Cc1cc(-c2cccc(C(=O)NC(CO)CO)c2)ccc1O[C@H]1O[C@H](CO)[C@@H](O)[C@H](O)[C@]1(C)O [Compound 62]	9 ± 3 nM

Structure (SMILES)	IC50
COc1ccc(OC)c(-c2ccc(O[C@H]3O[C@H](CO)[C@@H](O)[C@H](O)[C@]3(C)O)c(C)c2)c1 [Compound 95]	24 ± 12 nM
COc1ccc2c(c1)CC[C@]1(O2)O[C@H](CO)[C@@H](O)[C@H](O)[C@@H]1O [compound 32]	333 ± 100 nM
Cc1cc(-c2cccc(C(=O)NCCOCCOCCN)c2)ccc1O[C@H]1O[C@H](CO)[C@@H](O)[C@H](O)[C@]1(C)O [Compound 22]	15 ± 4 nM
Cc1cc(-c2ccc(Cl)c(Cl)c2)ccc1O[C@H]1O[C@H](CO)[C@@H](O)[C@H](O)[C@]1(C)O [Compound 82]	110 ± 31 nM
COc1ccc(C#N)cc1-c1ccc(O[C@H]2O[C@H](CO)[C@@H](O)[C@H](O)[C@]2(C)O)c(C)c1 [Compound 79]	20 ± 5 nM
Cc1ccc(-c2ccc(C)c(O[C@H]3O[C@H](CO)[C@@H](O)[C@H](O)[C@]3(C)O)c2)cc1O[C@H]1O[C@H](CO)[C@@H](O)[C@H](O)[C@]1(C)O [Example 113, (2R,3S,4S,5S,6R)-6-(hydroxymethyl)-3-methyl-2-[2-methyl-5-[4-methyl-3-[(2R,3S,4S,5S,6R)-3,4,5-trihydroxy-6-(hydroxymethyl)-3-methyl-tetrahydropyran-2-yl]oxy-phenyl]phenoxy]tetrahydropyran-3,4,5-triol]	15 ± 11 nM
CNC(=O)c1cccc(-c2cccc(O[C@H]3O[C@H](CO)[C@@H](O)[C@H](O)[C@]3(C)O)c2Cl)c1 [Compound 46]	126 ± 38 nM
C[C@@]1(O)[C@@H](Oc2ccc(-c3ccc(C(=O)NC4CC4)c(Cl)c3)cc2Cl)O[C@H](CO)[C@@H](O)[C@@H]1O [Compound 54]	42 ± 7 nM
Cc1cc(-c2cccc(C(=O)N(C)C)c2)ccc1O[C@H]1O[C@H](CO)[C@@H](O)[C@H](O)[C@]1(C)O [Compound 83]	19 ± 6 nM
Cc1cc(-c2cccc(C(=O)N[C@@H](CO)[C@@H](C)O)c2)ccc1O[C@H]1O[C@H](CO)[C@@H](O)[C@H](O)[C@]1(C)O [Compound 72]	36 ± 9 nM
Cc1cc(-c2ccc(F)c(F)c2)ccc1O[C@H]1O[C@H](CO)[C@@H](O)[C@H](O)[C@]1(C)O [Compound 88]	2950 ± 150 nM
Cc1cc(C#Cc2ccc(O[C@H]3O[C@H](CO)[C@@H](O)[C@H](O)[C@]3(C)O)c(C)c2)ccc1O[C@H]1O[C@H](CO)[C@@H](O)[C@H](O)[C@]1(C)O [Example 117, (2R,3S,4S,5S,6R)-6-(hydroxymethyl)-3-methyl-2-[2-methyl-4-[2-[3-methyl-4-[(2R,3S,4S,5S,6R)-3,4,5-trihydroxy-6-(hydroxymethyl)-3-methyl-tetrahydropyran-2-yl]oxy-phenyl]ethynyl]phenoxy]tetrahydropyran-3,4,5-triol]	15 ± 8 nM
CNC(=O)c1cccc(-c2ccc(O[C@H]3O[C@](C)(CO)[C@@H](O)[C@H](O)[C@@H]3O)c(C)c2)c1 [compound 26]	2370 ± 544 nM
Cc1cc(-c2cc(F)cc(C(=O)N3CCOCC3)c2)ccc1O[C@H]1O[C@H](CO)[C@@H](O)[C@H](O)[C@]1(C)O [Compound 103]	18 ± 8 nM
Cc1cc(-c2cccc(-c3ccc(O[C@H]4O[C@H](CO)[C@@H](O)[C@H](O)[C@]4(C)O)c(C)c3)n2)ccc1O[C@H]1O[C@H](CO)[C@@H](O)[C@H](O)[C@]1(C)O [Example 121, (2R,3S,4S,5S,6R)-6-(hydroxymethyl)-3-methyl-2-[2-methyl-4-[6-[3-methyl-4-[(2R,3S,4S,5S,6R)-3,4,5-trihydroxy-6-(hydroxymethyl)-3-methyl-tetrahydropyran-2-yl]oxy-phenyl]-2-pyridyl]phenoxy]tetrahydropyran-3,4,5-triol]	6 ± 0.8 nM
